From ChEMBL document CHEMBL1201862, “PubChem BioAssay data set” (2004)
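Values below derive from 48-hour exposures of cells grown in 96-well plates, with endpoints linearly interpolated between the two concentrations bracketing the appropriate inhibition level. GI50 is the concentration that inhibits growth by half.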 The source made the active and inactive calls. No stated cut-off is given here; in the data, active = GI50 up to about 1.1 µM and inactive = higher.

Key:
Assay in all cases: NCI tumour cell line growth inhibition, 48 h
786-0 = tested on: 786-0
A498 = tested on: A498
CCRF-CEM = tested on: CCRF-CEM
DLD-1 = tested on: DLD-1
DMS-114 = tested on: DMS-114
HOP-18 = tested on: HOP-18
HOP-92 = tested on: HOP-92
LXFL 529 = tested on: LXFL 529
M19-MEL = tested on: M19-MEL
MOLT-4 = tested on: MOLT-4
Malme-3M = tested on: Malme-3M
OVCAR-3 = tested on: OVCAR-3
OVCAR-5 = tested on: OVCAR-5
SR = tested on: SR

Measured: GI50

CCc1ccc(Nc2cc(=O)[nH]c(=S)n2C)cc1
inactive: 786-0 > 100 µM | A498 > 100 µM | CCRF-CEM > 100 µM | DLD-1 > 100 µM | DMS-114 > 100 µM | HOP-18 > 100 µM | HOP-92 > 100 µM | LXFL 529 > 100 µM | M19-MEL > 100 µM | MOLT-4 > 100 µM | Malme-3M > 100 µM | OVCAR-3 > 100 µM | OVCAR-5 > 100 µM | SR > 100 µM
